Experimental data reported in the NIST ThermoML archive (doi:10.1016/j.jct.2017.03.006).

Experiment: xn = mol fraction of the nth substance listed
Settings: 313.15 K, Liquid; for viscosity: Concentric cylinders viscometry; for mass density: Vibrating tube method

Cc1ccc(C)c(C)c1 [1,2,4-trimethylbenzene] + CCC(C)O
Settings	mass density [kg/m3]	viscosity [mPa·s]
100 kPa, x2 = 0	859	–
100 kPa, x2 = 0.1	852.6	–
100 kPa, x2 = 0.1989	846.6	–
100 kPa, x2 = 0.3011	840.2	–
100 kPa, x2 = 0.4002	834	–
100 kPa, x2 = 0.5001	827.5	–
100 kPa, x2 = 0.5298	–	0.773
100 kPa, x2 = 0.5997	820.6	–
100 kPa, x2 = 0.6001	–	0.84
100 kPa, x2 = 0.6999	813.4	–
100 kPa, x2 = 0.7001	–	0.94
100 kPa, x2 = 0.7997	–	1.09
100 kPa, x2 = 0.7999	806	–
100 kPa, x2 = 0.9	797.9	–
100 kPa, x2 = 0.9001	–	1.35
1000 kPa, x2 = 0	859.7	–
1000 kPa, x2 = 0.1	853.3	–
1000 kPa, x2 = 0.1989	847.2	–
1000 kPa, x2 = 0.3011	840.9	–
1000 kPa, x2 = 0.4002	834.7	–
1000 kPa, x2 = 0.5001	828.2	–
1000 kPa, x2 = 0.5997	821.3	–
1000 kPa, x2 = 0.6999	814.2	–
1000 kPa, x2 = 0.7999	806.7	–
1000 kPa, x2 = 0.9	798.7	–
2000 kPa, x2 = 0	860.4	–
2000 kPa, x2 = 0.1	854.1	–
2000 kPa, x2 = 0.1989	848	–
2000 kPa, x2 = 0.3011	841.7	–
2000 kPa, x2 = 0.4002	835.6	–
2000 kPa, x2 = 0.5001	829.1	–
2000 kPa, x2 = 0.5997	822.2	–
2000 kPa, x2 = 0.6999	815	–
2000 kPa, x2 = 0.7999	807.6	–
2000 kPa, x2 = 0.9	799.6	–
5000 kPa, x2 = 0	862.6	–
5000 kPa, x2 = 0.1	856.3	–
5000 kPa, x2 = 0.1989	850.3	–
5000 kPa, x2 = 0.3011	844.1	–
5000 kPa, x2 = 0.4002	838	–
5000 kPa, x2 = 0.5001	831.5	–
5000 kPa, x2 = 0.5997	824.6	–
5000 kPa, x2 = 0.6999	817.5	–
5000 kPa, x2 = 0.7999	810.1	–
5000 kPa, x2 = 0.9	802.1	–
10000 kPa, x2 = 0	866	–
10000 kPa, x2 = 0.1	860	–
10000 kPa, x2 = 0.1989	854.1	–
10000 kPa, x2 = 0.3011	847.9	–
10000 kPa, x2 = 0.4002	841.7	–
10000 kPa, x2 = 0.5001	835.4	–
10000 kPa, x2 = 0.5997	828.5	–
10000 kPa, x2 = 0.6999	821.5	–
10000 kPa, x2 = 0.7999	814.2	–
10000 kPa, x2 = 0.9	806.2	–
15000 kPa, x2 = 0	869.3	–
15000 kPa, x2 = 0.1	863.5	–
15000 kPa, x2 = 0.1989	857.6	–
15000 kPa, x2 = 0.3011	851.5	–
15000 kPa, x2 = 0.4002	845.4	–
15000 kPa, x2 = 0.5001	839.1	–
15000 kPa, x2 = 0.5997	832.3	–
15000 kPa, x2 = 0.6999	825.3	–
15000 kPa, x2 = 0.7999	818	–
15000 kPa, x2 = 0.9	810.1	–
20000 kPa, x2 = 0	872.6	–
20000 kPa, x2 = 0.1	866.8	–
20000 kPa, x2 = 0.1989	861	–
20000 kPa, x2 = 0.3011	854.9	–
20000 kPa, x2 = 0.4002	848.9	–
20000 kPa, x2 = 0.5001	842.6	–
20000 kPa, x2 = 0.5997	835.9	–
20000 kPa, x2 = 0.6999	829	–
20000 kPa, x2 = 0.7999	821.7	–
20000 kPa, x2 = 0.9	813.8	–
30000 kPa, x2 = 0	878.7	–
30000 kPa, x2 = 0.1	873.2	–
30000 kPa, x2 = 0.1989	867.5	–
30000 kPa, x2 = 0.3011	861.5	–
30000 kPa, x2 = 0.4002	855.6	–
30000 kPa, x2 = 0.5001	849.4	–
30000 kPa, x2 = 0.5997	842.8	–
30000 kPa, x2 = 0.6999	835.8	–
30000 kPa, x2 = 0.7999	828.6	–
30000 kPa, x2 = 0.9	820.8	–
40000 kPa, x2 = 0	884.5	–
40000 kPa, x2 = 0.1	879.2	–
40000 kPa, x2 = 0.1989	873.5	–
40000 kPa, x2 = 0.3011	867.6	–
40000 kPa, x2 = 0.4002	861.7	–
40000 kPa, x2 = 0.5001	855.8	–
40000 kPa, x2 = 0.5997	849	–
40000 kPa, x2 = 0.6999	842.2	–
40000 kPa, x2 = 0.7999	835	–
40000 kPa, x2 = 0.9	827.3	–
50000 kPa, x2 = 0	889.9	–
50000 kPa, x2 = 0.1	884.8	–
50000 kPa, x2 = 0.1989	879.3	–
50000 kPa, x2 = 0.3011	873.4	–
50000 kPa, x2 = 0.4002	867.5	–
50000 kPa, x2 = 0.5001	861.6	–
